Reference: publication PMC9732672, “Pyrazolyl-s-triazine with indole motif as a novel of epidermal growth factor receptor/cyclin-dependent kinase 2 dual inhibitors” (Frontiers in Chemistry, 2022)
Where two headings read alike, the source gives them in different places.

Experiments:
[1] = tested on: HDFs (non-cancerous human dermal fibroblasts); assay: MTT cytotoxicity assay, HDFs; assay type: cell-based; details: non-cancerous cells, average ±SD of four independent experiments, read-out: IC50 ± STDEV, HDFs
Description: (§1) The parental MCF7 (breast cancer cell line), A549 (non-small cell lung cancer cell line), and human dermal fibroblast (HDF) (human dermal cell line) cells were obtained from the American Type Culture Collection (ATCC, Manassas, VA, United States). MCF7 and A549 cells were cultured in RPMI 1640 medium (EuroClone, Italy) supplemented with 10% (v/v) heat-inactivated fetal bovine serum (FBS) (EuroClone, Italy), 1% penicillin-streptomycin (EuroClone, Italy), and 2 mM L-glutamine.
(§2) The cytotoxic activity of the tested compounds were tested using MTT assay. […] Then, the cell viability was recored and IC50 values were calcualted. ([Mosmann, 1983]; [Nafie et al., 2020c]).

[2] = tested on: MCF-7 (breast cancer) cells; assay: MTT cytotoxicity assay, MCF-7; assay type: cell-based, human; details: read-out: IC50 ± STDEV, MCF-7
Description: as §1, §2

[3] = tested on: A549 (non-small cell lung cancer) cells; assay: MTT cytotoxicity assay, A549; assay type: cell-based, human; details: read-out: IC50 ± STDEV, A549
Description: as §1, §2

CDK-2 = CDK-2 (Homo sapiens, UniProt P24941); assay: CDK-2 enzyme inhibition; assay type: biochemical; details: Mean ± SD of three independent replicates
A549 cells = assay: Flow cytometry, Annexin V/PI staining; assay type: cell-based, human; details: A549, IC50 value, 48 h; for cells undergoing late apoptosis: control 0.16%; for cells undergoing early apoptosis: control 0.42%; for total apoptosis / total apoptotic cell death, fold vs control: control 0.61%; for necrosis-mediated cell death / necrosis-mediated cell death, fold increase: control 0.97%
Description: A549 cells were seeded into 6-well culture plates (3-5× 10^5 cells/well) and incubated overnight. […] Next, media supernatants and cells were collected and rinsed with ice-cold PBS. The cells were then suspended in the flow cytometry solutions and cells were stained with Annexin V/PI, and data was acquired using a Cytoflex FACS machine. Data were analyzed using cytExpert software. ([Hisham et al., 2019]; [Khodair et al., 2019]; [Nafie et al., 2020b]).

EGFR = target: T1, EGFR (Homo sapiens, UniProt P00533); assay: EGFR-TK kinase assay (ADP-Glo); assay type: biochemical; details: Mean ± SD of three independent replicates; read-out: EGFR inhibition IC50
T1 construct: purchased Promega V9261
T1 sequence (P00533 25-1210): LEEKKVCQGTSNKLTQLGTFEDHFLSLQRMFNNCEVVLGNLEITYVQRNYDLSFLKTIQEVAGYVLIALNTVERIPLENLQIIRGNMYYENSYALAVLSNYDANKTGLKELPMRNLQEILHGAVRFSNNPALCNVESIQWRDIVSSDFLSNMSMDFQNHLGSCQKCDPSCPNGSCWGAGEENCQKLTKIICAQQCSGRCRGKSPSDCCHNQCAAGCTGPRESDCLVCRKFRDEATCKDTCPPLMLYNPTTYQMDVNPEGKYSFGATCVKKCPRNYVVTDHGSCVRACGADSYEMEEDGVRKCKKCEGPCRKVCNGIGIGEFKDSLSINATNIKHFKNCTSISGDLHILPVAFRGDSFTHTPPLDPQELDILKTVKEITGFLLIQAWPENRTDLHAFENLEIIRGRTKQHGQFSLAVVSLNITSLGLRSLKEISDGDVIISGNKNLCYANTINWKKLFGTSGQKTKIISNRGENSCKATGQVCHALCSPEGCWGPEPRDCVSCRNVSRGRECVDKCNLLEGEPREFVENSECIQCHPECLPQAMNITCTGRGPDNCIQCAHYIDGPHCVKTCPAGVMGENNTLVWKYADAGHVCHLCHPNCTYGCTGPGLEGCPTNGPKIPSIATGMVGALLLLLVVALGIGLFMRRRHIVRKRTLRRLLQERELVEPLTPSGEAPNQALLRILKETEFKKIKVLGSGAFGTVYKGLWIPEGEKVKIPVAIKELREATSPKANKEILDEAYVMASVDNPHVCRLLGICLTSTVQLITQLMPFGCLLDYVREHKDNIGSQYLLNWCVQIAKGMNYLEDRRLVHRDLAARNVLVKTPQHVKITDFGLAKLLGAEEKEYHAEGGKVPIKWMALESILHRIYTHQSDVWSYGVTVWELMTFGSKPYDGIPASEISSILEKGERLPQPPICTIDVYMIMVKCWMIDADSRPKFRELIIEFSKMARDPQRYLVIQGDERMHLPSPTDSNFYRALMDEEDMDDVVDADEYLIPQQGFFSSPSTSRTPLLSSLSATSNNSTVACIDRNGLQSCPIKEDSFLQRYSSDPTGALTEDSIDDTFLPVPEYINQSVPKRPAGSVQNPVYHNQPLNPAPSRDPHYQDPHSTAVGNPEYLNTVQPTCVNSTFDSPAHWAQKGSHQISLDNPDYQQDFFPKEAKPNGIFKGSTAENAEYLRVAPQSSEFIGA
Description: EGFR-TK assay kit (ADP-Glo™ kinase assay, Cat No. V9261, Promega, United States) kinase assay was performed to evaluate the capacity of 3h, 3i, and 3j to inhibit EGFR.

[4] = average ±SD of four independent experiments
[5] = Homo sapiens, MCF7, average ±SD of four independent experiments
[6] = Homo sapiens, A549, average ±SD of four independent experiments

| melting point [°C] | Molecule | IC50 ([1]; Homo sapiens, Fibroblast) [µM] | IC50 [2, 5] [µM] | IC50 [3, 6] [µM] | also measured |
| --- | --- | --- | --- | --- | --- |
| 328 to 330 | N#Cc1cnn(-c2nc(N3CCOCC3)nc(N3CCOCC3)n2)c1-c1c[nH]c2ccccc12 [Compound 5b, 1-(4,6-Dimorpholino-1,3,5-triazin-2-yl)-5-(1H-indol-3-yl)-1H-pyrazole-4 carbonitrile] | > 500 | > 500 | > 500 | – |
| 298 to 299 | N#Cc1cnn(-c2nc(Nc3ccccc3)nc(N3CCCCC3)n2)c1-c1c[nH]c2ccccc12 [Compound 5d, 5-(1H-Indol-3-yl)-1-(4-(phenylamino)-6-(piperidin-1-yl)-1,3,5-triazin-2-yl)-1H-pyrazole-4-carbonitrile] | 115 ± 14.8 | 16.8 ± 0.78 | 10.3 ± 2.64 | – |
| 273 to 275 | COc1ccc(Nc2nc(N3CCCCC3)nc(-n3ncc(C#N)c3-c3c[nH]c4ccccc34)n2)cc1 [Compound 5g, 5-(1H-Indol-3-yl)-1-(4-((4-methoxyphenyl)amino)-6-(piperidin-1-yl)-1,3,5-triazin-2-yl)-1H-pyrazole-4-carbonitrile] | > 500 | > 500 | > 500 | – |
| 314 to 316 | N#Cc1cnn(-c2nc(Nc3ccccc3)nc(N3CCOCC3)n2)c1-c1c[nH]c2ccccc12 [Compound 5h, 5-(1H-Indol-3-yl)-1-(4-morpholino-6-(phenylamino)-1,3,5-triazin-2-yl)-1H-pyrazole-4-carbonitrile] | 23.8 ± 3.37 | – | 7.62 ± 0.85 | – |
| 293 to 295 | COc1ccc(Nc2nc(N3CCOCC3)nc(-n3ncc(C#N)c3-c3c[nH]c4ccccc34)n2)cc1 [Compound 5k, 5-(1H-Indol-3-yl)-1-(4-((4-methoxyphenyl)amino)-6-morpholino-1,3,5-triazin-2-yl)-1H-pyrazole-4-carbonitrile] | > 500 | > 500 | > 500 | – |

The remaining lines, values behind:

| Molecule | melting point [°C] | IC50 ([1]; Homo sapiens, Fibroblast) [µM] | IC50 [2, 5] [µM] | IC50 [3, 6] [µM] | also measured |
| --- | --- | --- | --- | --- | --- |
| 2-(4,6-Di (piperidin-1-yl)-1,3,5-triazin-2-yl)-3-(1H-indol-3-yl)-2,3-dihydro-1H-pyrazole-4-carbonitrile [Compound 5a] | – | – | – | – | IC50 [1]: > 500 µM; IC50 [2, 4]: 65.2 ± 1.43 µM; IC50 [3, 4]: 66.1 ± 5.71 µM |
| Nc1cc(-c2c[nH]c3ccccc23)nn1-c1nc(N2CCCCC2)nc(N2CCCCC2)n1 [Compound 3a, 1-(4,6-Di (piperidin-1-yl)-1,3,5-triazin-2-yl)-3-(1H-indol-3-yl)-1H-pyrazol-5-amine] | 288 to 290 | > 500 | > 500 | > 500 | – |
| Nc1cc(-c2c[nH]c3ccccc23)nn1-c1nc(N2CCOCC2)nc(N2CCOCC2)n1 [Compound 3b, 1-(4,6-Dimorpholino-1,3,5-triazin-2-yl)-3-(1H-indol-3-yl)-1H-pyrazol-5-amine] | 188 to 189 | 4.47 ± 1.43 | 11.7 ± 1.77 | 3.08 ± 1.27 | – |
| Nc1cc(-c2c[nH]c3ccccc23)nn1-c1nc(N2CCCCC2)nc(N2CCOCC2)n1 [Compound 3c, 3-(1H-Indol-3-yl)-1-(4-morpholino-6-(piperidin-1-yl)-1,3,5-triazin-2-yl)-1H-pyrazol-5-amine] | 178 to 179 | 6.82 ± 1.34 | 12.6 ± 1.03 | 4.82 ± 0.29 | – |
| Nc1cc(-c2c[nH]c3ccccc23)nn1-c1nc(Nc2ccccc2)nc(N2CCCCC2)n1 [Compound 3d, 4-(5-Amino-3-(1H-indol-3-yl)-1H-pyrazol-1-yl)-N-phenyl-6-(piperidin-1-yl)-1,3,5-triazin-2-amine] | – | 22.9 ± 5.2 | 11.7 ± 4.43 | 10.6 ± 2.88 | – |
| Nc1cc(-c2c[nH]c3ccccc23)nn1-c1nc(Nc2ccc(Cl)cc2)nc(N2CCCCC2)n1 [Compound 3e, 4-(5-Amino-3-(1H-indol-3-yl)-1H-pyrazol-1-yl)-N-(4-chlorophenyl)-6-(piperidin-1-yl)-1,3,5-triazin-2-amine] | 295 to 296 | 11.2 ± 0.69 | 15.2 ± 0.74 | 9.57 ± 1.26 | – |
| Nc1cc(-c2c[nH]c3ccccc23)nn1-c1nc(Nc2ccc(Br)cc2)nc(N2CCCCC2)n1 [Compound 3f, 4-(5-Amino-3-(1H-indol-3-yl)-1H-pyrazol-1-yl)-N-(4-bromophenyl)-6-(piperidin-1-yl)-1,3,5-triazin-2-amine] | 271 to 274 | 6.8 ± 1.02 | 13.2 ± 0.55 | 14.8 ± 0.83 | – |
| COc1ccc(Nc2nc(N3CCCCC3)nc(-n3nc(-c4c[nH]c5ccccc45)cc3N)n2)cc1 [Compound 3g, 4-(5-Amino-3-(1H-indol-3-yl)-1H-pyrazol-1-yl)-N-(4-methoxyphenyl)-6-(piperidin-1-yl)-1,3,5-triazin-2-amine] | – | 4.36 ± 0.83 | 7.68 ± 0.21 | 6.23 ± 0.48 | – |
| Nc1cc(-c2c[nH]c3ccccc23)nn1-c1nc(Nc2ccccc2)nc(N2CCOCC2)n1 [Compound 3h, 4-(5-Amino-3-(1H-indol-3-yl)-1H-pyrazol-1-yl)-6-morpholino-N-phenyl-1,3,5-triazin-2-amine] | – | 14 ± 2.67 | 2.66 ± 0.26 | 2.65 ± 0.22 | IC50 (CDK-2): 0.112 ± 0.00301 µM; cells undergoing late apoptosis (A549 cells): 12%; cells undergoing early apoptosis (A549 cells): 19.4%; total apoptosis (A549 cells): 31.4%; total apoptotic cell death, fold vs control (A549 cells): 51.4 fold; necrosis-mediated cell death (A549 cells): 4.98%; necrosis-mediated cell death, fold increase (A549 cells): 5.1 fold; IC50 (EGFR): 0.0642 ± 0.00312 µM |
| Nc1cc(-c2c[nH]c3ccccc23)nn1-c1nc(Nc2ccc(Br)cc2)nc(N2CCOCC2)n1 [Compound 3j, 4-(5-Amino-3-(1H-indol-3-yl)-1H-pyrazol-1-yl)-N-(4-bromophenyl)-6-morpholino-1,3,5-triazin-2-amine] | – | 3.96 ± 0.73 | 3.3 ± 0.32 | 2.32 ± 0.21 | IC50 (CDK-2): 0.136 ± 0.00314 µM; cells undergoing late apoptosis (A549 cells): 8.5%; cells undergoing early apoptosis (A549 cells): 22.6%; total apoptosis (A549 cells): 31.1%; total apoptotic cell death, fold vs control (A549 cells): 50.9 fold; necrosis-mediated cell death (A549 cells): 5.42%; necrosis-mediated cell death, fold increase (A549 cells): 5.58 fold; IC50 (EGFR): 0.0684 ± 0.00298 µM |
| COc1ccc(Nc2nc(N3CCOCC3)nc(-n3nc(-c4c[nH]c5ccccc45)cc3N)n2)cc1 [Compound 3k, 4-(5-Amino-3-(1H-indol-3-yl)-1H-pyrazol-1-yl)-N-(4-methoxyphenyl)-6-morpholino-1,3,5-triazin-2-amine] | – | 8.9 ± 1.07 | 4.11 ± 0.5 | 3.64 ± 1.26 | – |
| N#Cc1cnn(-c2nc(N3CCCCC3)nc(N3CCOCC3)n2)c1-c1c[nH]c2ccccc12 [Compound 5c, 5-(1H-Indol-3-yl)-1-(4-morpholino-6-(piperidin-1-yl)-1,3,5-triazin-2-yl)-1H-pyrazol4-carbonitrile] | – | 537 ± 71.6 | 152 ± 50.1 | 223 ± 88.3 | – |
| N#Cc1cnn(-c2nc(Nc3ccc(Cl)cc3)nc(N3CCCCC3)n2)c1-c1c[nH]c2ccccc12 [Compound 5e, 1-(4-((4-Chlorophenyl)amino)-6-(piperidin-1-yl)-1,3,5-triazin-2-yl)-5-(1H-indol-3-yl)-1H-pyrazole-4-carbonitrile] | – | > 500 | > 500 | > 500 | – |
| N#Cc1cnn(-c2nc(Nc3ccc(Br)cc3)nc(N3CCCCC3)n2)c1-c1c[nH]c2ccccc12 [Compound 5f, 1-(4-((4-Bromophenyl)amino)-6-(piperidin-1-yl)-1,3,5-triazin-2-yl)-5-(1H-indol-3-yl)-1H-pyrazole-4-carbonitrile] | – | > 500 | > 500 | > 500 | – |
| N#Cc1cnn(-c2nc(Nc3ccc(Cl)cc3)nc(N3CCOCC3)n2)c1-c1c[nH]c2ccccc12 [Compound 5i, 1-(4-((4-Chlorophenyl)amino)-6-morpholino-1,3,5-triazin-2-yl)-5-(1H-indol-3-yl)-1H-pyrazole-4-carbonitrile] | – | > 500 | 59.8 ± 0.81 | 44.5 ± 19.2 | – |
| N#Cc1cnn(-c2nc(Nc3ccc(Br)cc3)nc(N3CCOCC3)n2)c1-c1c[nH]c2ccccc12 [Compound 5j, 1-(4-((4-Bromophenyl)amino)-6-morpholino-1,3,5-triazin-2-yl)-5-(1H-indol-3-yl)-1H-pyrazole-4-carbonitrile] | – | > 500 | 51.1 ± 10.3 | 23.2 ± 2.27 | – |
| COc1cccc2c1C(=O)c1c(O)c3c(c(O)c1C2=O)C[C@@](O)(C(=O)CO)C[C@@H]3O[C@H]1C[C@H](N)[C@H](O)[C@H](C)O1 [Doxorubicin, reference compound] | – | 0.42 ± 0.27 | 0.06 ± 0.02 | 0.28 ± 0.11 | – |
